Publication PMC12904578 (PLOS Pathogens, 2026)
“Also recorded” adds a separate entry of the source.

Columns and labels:
[1] = system: Sh2 H7 HA from A/Shanghai/2/2013 (H7N9); conditions: cited from earlier work
H5FR H5 HA = type: binding, A/duck/France/161108h/2016 (H5N8)
[2] = system: VN1194 H5 HA from A/Vietnam/1194/2004 (H5N1); conditions: cited from earlier work
[3] = molecular target: H5FR H5 HA ectodomain from A/duck/France/161108h/2016 (H5N8), polyhistidine-tagged (SPR form) (influenza A virus A/duck/France/161108h/2016 (H5N8)); experiment: SPR

Compound: NeuAcα2–3Galβ1–4GlcNAcβ1–3GalNAcα-Thr [glycan #21]
- binding mode of glycan in Sh2 H7 HA [1]: adopts a cis configuration in the Siaα2–3Gal linkage

Compound: NeuAcα2–3Galβ1–3GlcNAcβ1–3Galβ1–4Glc [LSTa]
- binding interactions in H5FR HA receptor binding site (H5FR H5 HA): Sia-1, Gal-2 and GlcNAc-3 were ordered; also recorded: similarly to VN1194 HA or H5VN HA
- LSTa residues visible in VN1194 H5 HA complex [2]: only Sia-1 and Gal-2 were visible

Compound: CC(=O)NC1C(O)OC(CO)C(OC2OC(CO)C(O)C(OC3(C(=O)O)CC(O)C(NC(C)=O)C(C(O)C(O)CO)O3)C2O)C1O (centres unmarked) [3´-SLN, NeuAcα2–3Galβ1–4GlcNAc]
- Siaα2–3Gal linkage configuration of 3´-SLN in VN1194 H5 HA [2]: trans configuration

Compound: O-linked glycopeptide compound 2 (core 1 on peptide FVTIG, no sialic acid)
- Kd [3]: > 650 µM
